Reference: PubChem BioAssay (NCI)
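Test compounds were applied to cells in 96-well plates for 48 hours at 5 doses. Here, GI50 denotes the concentration required for 50% inhibition of growth. TGI denotes the concentration required for complete inhibition of growth.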

Columns and labels:
Test in all cases: NCI tumour cell line growth inhibition, 48 h
[1] = tested on: HT29 colon
[2] = tested on: K-562 leukemia
[3] = tested on: OVCAR-3 ovarian
[4] = tested on: EKVX NSCLC
[5] = tested on: RPMI-8226 leukemia
[6] = tested on: NCI-H226 lung
[7] = tested on: HCC-2998 colon
[8] = tested on: OVCAR-8 ovarian
[9] = tested on: UO-31 renal
[10] = tested on: HCT-116 colon
[11] = tested on: XF 498 CNS
[12] = tested on: HOP-92 NSCLC
[13] = tested on: SNB-78 CNS
[14] = tested on: LOX IMVI melanoma
[15] = tested on: COLO 205 colon
[16] = tested on: SF-539 CNS
[17] = tested on: UACC-257 melanoma
[18] = tested on: SK-MEL-2 melanoma
[19] = tested on: MOLT-4 leukemia
[20] = tested on: UACC-62 melanoma
[21] = tested on: M19-MEL melanoma
[22] = tested on: OVCAR-4 ovarian
[23] = tested on: SNB-19 CNS
[24] = tested on: HCT-15 colon
[25] = tested on: KM12 colon
[26] = tested on: SK-MEL-28 melanoma
[27] = tested on: CCRF-CEM leukemia
[28] = tested on: IGROV1 ovarian
[29] = tested on: SR leukemia
[30] = tested on: LXFL 529 NSCLC
[31] = tested on: RXF-631 renal
[32] = tested on: NCI-H23 lung
[33] = tested on: SF-295 CNS
[34] = tested on: NCI-H460 lung
[35] = tested on: M14 melanoma
[36] = tested on: HOP-18 NSCLC
[37] = tested on: ACHN renal
[38] = tested on: 786-0 renal
[39] = tested on: DLD-1 colon
[40] = tested on: MALME-3M melanoma
[41] = tested on: U251 CNS
[42] = tested on: KM20L2 colon
[43] = tested on: SW-620 colon
[44] = tested on: RXF 393 renal
[45] = tested on: OVCAR-5 ovarian
[46] = tested on: SF-268 CNS
[47] = tested on: TK-10 renal
[48] = tested on: A549 NSCLC
[49] = tested on: HL-60(TB) leukemia
[50] = tested on: SK-OV-3 ovarian
[51] = tested on: DMS 114 small cell lung

CCCCCCCCCCCCC(=O)[O-].CCCCCCCCCCCCC(=O)[O-].CCCCCCCCCCCCC(=O)[O-].CCCCCCCCCCCCC(=O)[O-].[Mo+2].[Mo+2]
GI50 [1]: 12.6 µM
TGI [1]: 27.1 µM
GI50 [2]: 10.9 µM
TGI [2]: 79.8 µM
GI50 [3]: 12.4 µM
TGI [3]: 24.9 µM
GI50 [4]: 19.7 µM
TGI [4]: 35.8 µM
GI50 [5]: 4.08 µM
TGI [5]: 37 µM
GI50 [6]: 12.4 µM
TGI [6]: 46.8 µM
GI50 [7]: 19.9 µM
TGI [7]: 49.8 µM
GI50 [8]: 11.9 µM
TGI [8]: 31.3 µM
GI50 [9]: 14.7 µM
TGI [9]: 41.9 µM
GI50 [10]: 8.98 µM
TGI [10]: 27.3 µM
GI50 [11]: 11.3 µM
TGI [11]: 23.4 µM
GI50 [12]: 3.56 µM
TGI [12]: 9.35 µM
GI50 [13]: 19.9 µM
TGI [13]: 67.3 µM
GI50 [14]: 12.1 µM
TGI [14]: 25.2 µM
GI50 [15]: 19.3 µM
TGI [15]: 46.4 µM
GI50 [16]: 13.9 µM
TGI [16]: 29.1 µM
GI50 [17]: 26.5 µM
TGI [17]: 96.1 µM
GI50 [18]: 12.2 µM
TGI [18]: 28 µM
GI50 [19]: 3.57 µM
TGI [19]: 22.5 µM
GI50 [20]: 11.7 µM
TGI [20]: 26.9 µM
GI50 [21]: 18.7 µM
TGI [21]: > 100 µM
GI50 [22]: 10.2 µM
TGI [22]: 24.2 µM
GI50 [23]: 26.5 µM
TGI [23]: > 100 µM
GI50 [24]: 10.4 µM
TGI [24]: 22.1 µM
GI50 [25]: 10.9 µM
TGI [25]: 29.1 µM
GI50 [26]: 21.4 µM
TGI [26]: 65.7 µM
GI50 [27]: 2.29 µM
TGI [27]: 10 µM
GI50 [28]: 15.5 µM
TGI [28]: 40.2 µM
GI50 [29]: 5.83 µM
TGI [29]: 29.8 µM
GI50 [30]: 10.7 µM
TGI [30]: 22.8 µM
GI50 [31]: 0.403 µM
TGI [31]: 2.06 µM
GI50 [32]: 17.9 µM
TGI [32]: 40.6 µM
GI50 [33]: 6.28 µM
TGI [33]: 27.7 µM
GI50 [34]: 17.1 µM
TGI [34]: 60.1 µM
GI50 [35]: 11.7 µM
TGI [35]: 27.8 µM
GI50 [36]: 20.6 µM
TGI [36]: 34.9 µM
GI50 [37]: 16 µM
TGI [37]: 30.4 µM
GI50 [38]: 3.68 µM
TGI [38]: 16 µM
GI50 [39]: 7.9 µM
TGI [39]: 23.3 µM
GI50 [40]: 11.4 µM
TGI [40]: 28 µM
GI50 [41]: 10.7 µM
TGI [41]: 22.6 µM
GI50 [42]: 16.2 µM
TGI [42]: 34.9 µM
GI50 [43]: 15.1 µM
TGI [43]: 29 µM
GI50 [44]: 12 µM
TGI [44]: 26.1 µM
GI50 [45]: 23.6 µM
TGI [45]: 67 µM
GI50 [46]: 17.3 µM
TGI [46]: 45.1 µM
GI50 [47]: 32.6 µM
TGI [47]: 94.6 µM
GI50 [48]: 14.9 µM
TGI [48]: 44.2 µM
GI50 [49]: 2.82 µM
TGI [49]: 7.8 µM
GI50 [50]: 15.1 µM
TGI [50]: 59.9 µM
GI50 [51]: 6.62 µM
TGI [51]: 26 µM
